{
  "source": "ChEMBL document CHEMBL5346896",
  "about": "“Development of indolealkylamine derivatives as potential multi-target agents for COVID-19 treatment” (Eur J Med Chem, 2023)",
  "tested_on": "SARS-CoV-2",
  "experiment": "Antiviral activity against SARS-CoV-2 spike pseudotyped lentivirus infected in HEK293 cells expressing human ACE2 assessed as inhibition of viral entry into cells preincubated with cell for 1 hrs followed by viral infection for 1 hrs and further replaced with fresh medium and measured 48 hrs post transduction by luminescence based luciferase reporter assay",
  "format": "functional, organism-based, HEK293T",
  "conditions": "Severe acute respiratory syndrome coronavirus 2, HEK-293T",
  "data": [
    {"smiles": "COc1ccc2[nH]c(C(O)c3ccc(Cl)cc3)c(CCNC(C)=O)c2c1", "note": "(configuration not stated)", "values": [
      {"measurement": "IC50", "value": "~1000", "unit": "nM"}
    ]},
    {"smiles": "COC(=O)NCCc1c(C(O)c2ccccc2)[nH]c2ccc(OC)cc12", "note": "(configuration not stated)", "values": [
      {"measurement": "IC50", "value": "~1000", "unit": "nM"}
    ]}
  ]
}
